Experimental data as given in ChEMBL document CHEMBL1151657, “Flavonoids from the Wood of Salix caprea as Inhibitors of Wood-Destroying Fungi” (1985).

Assays:
Assay type in all cases: functional
Coniophora puteana [1] = test: Antimicrobial activity against Coniophora puteana after 60 mins by agar diffusion method
Staphylococcus aureus = test: Antimicrobial activity against Staphylococcus aureus after 30 mins by agar diffusion method
Trichoderma viride [2] = test: Antimicrobial activity against Trichoderma viride after 60 mins by agar diffusion method
Sporotrichum [3] = test: Antimicrobial activity against Sporotrichum pulverulentum after 60 mins by agar diffusion method
Escherichia coli = test: Antimicrobial activity against Escherichia coli after 30 mins by agar diffusion method
Enterococcus faecalis = test: Antimicrobial activity against Streptococcus faecalis after 30 mins by agar diffusion method
[4] = system: Trichophyton mentagrophytes; test: Antimicrobial activity against Trichophyton mentagrophytes after 60 mins by agar diffusion method
Trichoderma viride [5] = test: Antimicrobial activity against Trichoderma viride at 1% concentration after 60 mins by agar diffusion method
Coniophora puteana [6] = test: Antimicrobial activity against Coniophora puteana at 1% concentration after 60 mins by agar diffusion method
Sporotrichum [7] = test: Antimicrobial activity against Sporotrichum pulverulentum at 1% concentration after 60 mins by agar diffusion method
Sporotrichum [8] = test: Antimicrobial activity against Sporotrichum pulverulentum at 0.01% concentration after 60 mins by agar diffusion method
Coniophora puteana [9] = test: Antimicrobial activity against Coniophora puteana at 0.01% concentration after 60 mins by agar diffusion method

Compound | inhibition zone (IZ) (Coniophora puteana [1]) [mm] | inhibition zone (IZ) (Trichoderma viride [2]) [mm] | inhibition zone (IZ) (Sporotrichum [3]) [mm] | other results
COc1ccc(C2Oc3cc(O)cc(O)c3C(=O)C2O)cc1 (stereo unspecified) [DIHYDROKAEMPFERIDE] | <10 | – | – | inhibition zone (IZ) (Staphylococcus aureus): 8 mm
Oc1cc(O)c2c(c1)O[C@H](c1ccc(O)c(O)c1)[C@@H](O)C2 [CIANIDANOL] | – | 10 | – | –
O=[N+]([O-])c1c(Cl)c(Cl)c(Cl)c(Cl)c1Cl [PENTACHLORONITROBENZENE] | 10 | 10 | <10 | –
O=C1C[C@@H](c2ccc(O)cc2)Oc2cc(O)cc(O)c21 [NARINGENIN] | 10 | 10 | 10 | inhibition zone (IZ) (Escherichia coli): 8 mm; inhibition zone (IZ) (Enterococcus faecalis): 10 mm; inhibition zone (IZ) [4]: 11 mm; inhibition zone (IZ) (Staphylococcus aureus): 17.2 mm
O=C1C2CC=CCC2C(=O)N1SC(Cl)(Cl)Cl (stereo unspecified) [CAPTAN] | – | – | – | inhibition zone (IZ) (Trichoderma viride [5]): 15 mm; inhibition zone (IZ) (Coniophora puteana [6]): >25 mm; inhibition zone (IZ) (Sporotrichum [7]): >25 mm; inhibition zone (IZ) (Sporotrichum [8]): 15 mm; inhibition zone (IZ) (Coniophora puteana [9]): 10 mm
O=C1c2c(O)cc(O)cc2O[C@H](c2ccc(O)c(O)c2)[C@H]1O [(+)-TAXIFOLIN] | – | 10 | – | –
O=C1C[C@@H](c2ccc(O)cc2)Oc2cc(O[C@@H]3O[C@H](CO)[C@@H](O)[C@H](O)[C@H]3O)cc(O)c21 [PRUNIN] | – | – | 15 | –
O=C1c2c(O)cc(O)cc2O[C@H](c2ccc(O)cc2)[C@H]1O [DIHYDROKAEMPFEROL] | 10 | – | – | –
